From patent EP3130589A1, “HETEROCYCLIC AZA COMPOUNDS” (Grünenthal GmbH, priority 2015, dated 2017)

Molecular target: T1, TRPV1 human (Homo sapiens, UniProt Q8NER1)
T1 construct: expressed in transfected cells; host or cells: CHO K1 cells
Test: Functional testing on the vanilloid receptor 1 (VR1/TRPV1): FLIPR Ca2+ influx assay, inhibition of capsaicin (CAP) stimulation
Format: cell-based
Conditions: for Ki: functional (f) FLIPR assay, capsaicin (CAP) 100 nM, Ki from IC50 by Cheng-Prusoff equation; for inhibition at 5 µM: @ 5 µM compound; for TRPV1 human (f) CAP, result in words: ne = did not show any effect in this assay, pAG = partial agonist
Description: Furthermore, preference may be given to compounds according to the invention that cause a 50 per cent displacement of capsaicin, which is present at a concentration of 100 nM, in a FLIPR assay with CHO K1 cells which were transfected with the human VR1 gene at a concentration of less than 6,000 nM, preferably less than 5,000 nM, more preferably less that 3,000 nM or less than 1,000 nM and particularly preferably less than 300 nM, most particularly preferably less than 100 nM, even more preferably less than 75 nM, additionally preferably less than 50 nM, most preferably less than 10 nM.
In the process, the Ca^2+ influx is quantified in the FLIPR assay with the aid of a Ca^2+-sensitive dye (type Fluo-4, Molecular Probes Europe BV, Leiden, the Netherlands) in a fluorescent imaging plate reader (FLIPR, Molecular Devices, Sunnyvale, USA), as described hereinafter.
Functional testing carried out on the vanilloid receptor 1 (VRI/TRPV1 receptor) […]
The number of cells in the suspension is set to 3 x 10^5 per mL and 150 µL of this suspension are in each case introduced into a recess in the cell culture plates coated as described hereinbefore. In the incubator the plates are left for two to three days at 37°C, 5 vol.-% of CO2 and 95 % relative humidity. Subsequently, the cells are loaded with 2 µM of Fluo-4 and 0.01 vol.-% of Pluronic F127 (Molecular Probes Europe BV, Leiden, the Netherlands) in HBSS buffer for 30 min at 37°C, washed 3 times with HBSS buffer and after further incubation for 15 min at RT used for Ca^2+ measurement in a FLIPR assay. The Ca^2+-dependent fluorescence is in this case measured before and after the addition of substances (λex = 488 nm, λem = 540 nm). Quantification is carried out by measuring the highest fluorescence intensity (FC, fluorescence counts) over time.
The FLIPR protocol consists of 2 substance additions. First the compounds to be tested (10 µM) are pipetted onto the cells and the Ca^2+ influx is compared with the control (capsaicin 10 µM). This provides the result in % activation based on the Ca^2+ signal after the addition of 10 µM of capsaicin (CP). After 5 min incubation, 100 nM of capsaicin are applied and the Ca^2+ influx is also determined. Desensitising agonists and antagonists lead to suppression of the Ca^2+ influx. The % inhibition is calculated compared to the maximum achievable inhibition with 10 µM of capsazepine.
Triple analyses (n=3) are carried out and repeated in at least 3 independent experiments (N=4). Starting from the percentage displacement caused by different concentrations of the compounds to be tested of general formula I, IC50 inhibitory concentrations which cause a 50% displacement of capsaicin were calculated.
Ki values for the test substances were obtained by conversion by means of the Cheng-Prusoff equation (Cheng, Prusoff; Biochem. Pharmacol. 22, 3099-3108, 1973).

[1] = capsaicin (CAP) stimulus, relative to maximum achievable inhibition with 10 µM capsazepine, read-out: TRPV1 human (f) CAP, inhibition (in %)

T1 sequence (Q8NER1 whole entry): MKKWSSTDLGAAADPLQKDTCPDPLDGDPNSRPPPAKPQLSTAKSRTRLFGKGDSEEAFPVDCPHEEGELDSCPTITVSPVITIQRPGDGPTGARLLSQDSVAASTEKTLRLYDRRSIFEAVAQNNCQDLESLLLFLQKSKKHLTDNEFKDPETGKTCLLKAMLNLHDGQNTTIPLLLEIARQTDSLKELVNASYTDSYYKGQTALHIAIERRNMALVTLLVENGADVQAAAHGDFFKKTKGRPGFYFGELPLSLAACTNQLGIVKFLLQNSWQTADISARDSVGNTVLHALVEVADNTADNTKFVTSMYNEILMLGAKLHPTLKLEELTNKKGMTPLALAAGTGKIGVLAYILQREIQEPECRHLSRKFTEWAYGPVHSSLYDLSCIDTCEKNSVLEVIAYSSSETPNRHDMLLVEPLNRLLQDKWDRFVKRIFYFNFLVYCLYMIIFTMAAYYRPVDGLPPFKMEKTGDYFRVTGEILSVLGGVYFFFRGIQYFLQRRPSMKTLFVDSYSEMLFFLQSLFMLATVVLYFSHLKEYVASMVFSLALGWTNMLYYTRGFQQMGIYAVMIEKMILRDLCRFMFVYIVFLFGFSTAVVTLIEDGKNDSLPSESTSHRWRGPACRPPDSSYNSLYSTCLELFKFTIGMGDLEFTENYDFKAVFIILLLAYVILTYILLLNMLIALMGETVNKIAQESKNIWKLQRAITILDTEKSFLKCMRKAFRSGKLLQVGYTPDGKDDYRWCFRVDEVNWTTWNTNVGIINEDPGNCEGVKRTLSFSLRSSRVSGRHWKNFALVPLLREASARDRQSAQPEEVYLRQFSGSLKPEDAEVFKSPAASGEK

SMILES	Ki	further results
COc1ccc2c(c1)c(CC(=O)NCc1ccc(C(F)(F)F)nc1N1CCC(C)CC1)cn2C [example compound 2, 2-(5-methoxy-1-methyl-1H-indol-3-yl)-N-((2-(4-methylpiperidin-1-yl)-6-(trifluoromethyl)pyridin-3-yl)methyl)acetamide]	29.6 nM	–
CC1CCN(c2nc(C(F)(F)F)ccc2CNC(=O)Cc2cn(C)c3ccc(O)cc23)CC1 [example compound 11, 2-(5-hydroxy-1-methyl-1H-indol-3-yl)-N-((2-(4-methylpiperidin-1-yl)-6-(trifluoromethyl)pyridin-3-yl)methyl)acetamide]	0.3 nM	–
CC1CCN(c2nc(C(F)(F)F)ccc2CNC(=O)C(C)c2cn(C)c3ccccc23)CC1 (stereo not drawn) [example compound 14, 2-(1-methyl-1H-indol-3-yl)-N-((2-(4-methylpiperidin-1-yl)-6-(trifluoromethyl)pyridin-3-yl)methyl)propanamide]	53 nM	–
COCCOCc1nc(C(F)(F)F)ccc1CNC(=O)C(C)c1cn(C)c2ccc(O)cc12 (stereo not drawn) [example compound 15, 2-(5-hydroxy-1-methyl-1H-indol-3-yl)-N-((2-((2-methoxyethoxy)methyl)-6-(trifluoromethyl)pyridin-3-yl)methyl)propanamide]	–	inhibition at 5 µM [1]: 15%
CCNc1nc(C(F)(F)F)ccc1CNC(=O)C(C)c1cn(C)c2ccc(OC)cc12 (stereo not drawn) [example compound 16, N-((2-(ethylamino)-6-(trifluoromethyl)pyridin-3-yl)methyl)-2-(5-methoxy-1-methyl-1H-indol-3-yl)propanamide]	–	TRPV1 human (f) CAP, result in words: ne
CCNc1nc(C(F)(F)F)ccc1CNC(=O)Cc1cn(C)c2ccc(OC)cc12 [example compound 17, N-((2-(ethylamino)-6-(trifluoromethyl)pyridin-3-yl)methyl)-2-(5-methoxy-1-methyl-1H-indol-3-yl)acetamide]	–	inhibition at 1 µM (@ 1 µM compound, capsaicin (CAP) stimulus, relative to maximum achievable inhibition with 10 µM capsazepine, read-out: TRPV1 human (f) CAP, inhibition (in %)): 0%; inhibition at 5 µM [1]: 35%
CCNc1nc(C(F)(F)F)ccc1CNC(=O)Cc1cn(C)c2ccc(O)cc12 [example compound 18, N-((2-(ethylamino)-6-(trifluoromethyl)pyridin-3-yl)methyl)-2-(5-hydroxy-1-methyl-1H-indol-3-yl)acetamide]	8.2 nM	–
Cn1cc(CC(=O)NCc2ccc(C(F)(F)F)nc2N2CCOCC2)c2cc(O)ccc21 [example compound 20, 2-(5-hydroxy-1-methyl-1H-indol-3-yl)-N-((2-morpholino-6-(trifluoromethyl)pyridin-3-yl)methyl)acetamide]	16.5 nM	–
Cn1cc(CC(=O)NCc2ccc(C(F)(F)F)nc2C2CCCC2)c2cc(O)ccc21 [example compound 21, N-((2-cyclopentyl-6-(trifluoromethyl)pyridin-3-yl)methyl)-2-(5-hydroxy-1-methyl-1H-indol-3-yl)acetamide]	8 nM	–
CC(C(=O)NCc1ccc(C(F)(F)F)nc1CC1CCCCC1)c1cn(C)c2ccccc12 (stereo not drawn) [example compound 22, N-((2-(cyclohexylmethyl)-6-(trifluoromethyl)pyridin-3-yl)methyl)-2-(1-methyl-1H-indol-3-yl)propanamide]	35.9 nM	–
CC1CCN(c2nc(C(F)(F)F)ccc2CNC(=O)Nc2nc3c(Cl)cccc3s2)CC1 [example compound 23, 1-(4-chlorobenzo[d]thiazol-2-yl)-3-((2-(4-methylpiperidin-1-yl)-6-(trifluoromethyl)pyridin-3-yl)methyl)urea]	–	TRPV1 human (f) CAP, result in words: ne
CC1CCN(c2nc(C(F)(F)F)ccc2CNC(=O)Nc2nc3c([N+](=O)[O-])cccc3s2)CC1 [example compound 24, 1-((2-(4-methylpiperidin-1-yl)-6-(trifluoromethyl)pyridin-3-yl)methyl)-3-(4-nitrobenzo[d]thiazol-2-yl)urea]	31.2 nM	TRPV1 human (f) CAP, result in words: pAG
CC1CCN(c2nc(C(F)(F)F)ccc2CNC(=O)Nc2nc3ccccc3s2)CC1 [example compound 25, 1-(benzo[d]thiazol-2-yl)-3-((2-(4-methylpiperidin-1-yl)-6-(trifluoromethyl)pyridin-3-yl)methyl)urea]	84.9 nM	–

The next lines start with results.

Ki	SMILES	further results
0.8 nM	CC1CCN(c2nc(C(F)(F)F)ccc2CNC(=O)C(C)c2cn(C)c3ccc(O)cc23)CC1 (stereo not drawn) [example compound 1, 2-(5-hydroxy-1-methyl-1H-indol-3-yl)-N-((2-(4-methylpiperidin-1-yl)-6-(trifluoromethyl)pyridin-3-yl)methyl)propanamide]	–
4.8 nM	CC(C(=O)NCc1ccc(C(F)(F)F)nc1C1CCCC1)c1cn(C)c2ccc(O)cc12 (stereo not drawn) [example compound 3, N-((2-cyclopentyl-6-(trifluoromethyl)pyridin-3-yl)methyl)-2-(5-hydroxy-1-methyl-1H-indol-3-yl)propanamide]	–
44.2 nM	CCNc1nc(C(F)(F)F)ccc1CNC(=O)C(C)c1cn(C)c2ccc(O)cc12 (stereo not drawn) [example compound 4, N-((2-(ethylamino)-6-(trifluoromethyl)pyridin-3-yl)methyl)-2-(5-hydroxy-1-methyl-1H-indol-3-yl)propanamide]	–
5 nM	CC(C(=O)NCc1ccc(C(F)(F)F)nc1N1CCCC1)c1cn(C)c2ccc(O)cc12 (stereo not drawn) [example compound 5, 2-(5-hydroxy-1-methyl-1H-indol-3-yl)-N-((2-(pyrrolidin-1-yl)-6-(trifluoromethyl)pyridin-3-yl)methyl)propanamide]	–
16.2 nM	CCCCNc1nc(C(F)(F)F)ccc1CNC(=O)C(C)c1cn(C)c2ccc(O)cc12 (stereo not drawn) [example compound 6, N-((2-(butylamino)-6-(trifluoromethyl)pyridin-3-yl)methyl)-2-(5-hydroxy-1-methyl-1H-indol-3-yl)propanamide]	–
29.1 nM	CC(C(=O)NCc1ccc(C(F)(F)F)nc1OC1CCOCC1)c1cn(C)c2ccc(O)cc12 (stereo not drawn) [example compound 7, 2-(5-hydroxy-1-methyl-1H-indol-3-yl)-N-((2-((tetrahydro-2H-pyran-4-yl)oxy)-6-(trifluoromethyl)pyridin-3-yl)methyl)propanamide]	–
1.4 nM	Cc1cccc(-c2nc(C(F)(F)F)ccc2CNC(=O)C(C)c2cn(C)c3ccc(O)cc23)c1 (stereo not drawn) [example compound 8, 2-(5-hydroxy-1-methyl-1H-indol-3-yl)-N-((2-(m-tolyl)-6-(trifluoromethyl)pyridin-3-yl)methyl)propanamide]	–
45.7 nM	CC(C(=O)NCc1ccc(C(F)(F)F)nc1C1CCOCC1)c1cn(C)c2ccc(O)cc12 (stereo not drawn) [example compound 9, 2-(5-hydroxy-1-methyl-1H-indol-3-yl)-N-((2-(tetrahydro-2H-pyran-4-yl)-6-(trifluoromethyl)pyridin-3-yl)methyl)propanamide]	–
29.3 nM	CC(C(=O)NCc1ccc(C(F)(F)F)nc1N1CCOCC1)c1cn(C)c2ccc(O)cc12 (stereo not drawn) [example compound 10, 2-(5-hydroxy-1-methyl-1H-indol-3-yl)-N-((2-morpholino-6-(trifluoromethyl)pyridin-3-yl)methyl)propanamide]	–
81 nM	COCCCc1nc(C(F)(F)F)ccc1CNC(=O)C(C)c1cn(C)c2ccc(O)cc12 (stereo not drawn) [example compound 12, 2-(5-hydroxy-1-methyl-1H-indol-3-yl)-N-((2-(3-methoxypropyl)-6-(trifluoromethyl)pyridin-3-yl)methyl)propanamide]	–
3.9 nM	CC(C(=O)NCc1ccc(C(F)(F)F)nc1N1CCCCC1)c1cn(C)c2ccc(O)cc12 (stereo not drawn) [example compound 13, 2-(5-hydroxy-1-methyl-1H-indol-3-yl)-N-((2-(piperidin-1-yl)-6-(trifluoromethyl)pyridin-3-yl)methyl)propanamide]	–
76.4 nM	CCCCNc1nc(C(F)(F)F)ccc1CNC(=O)C(C)c1cn(C)c2ccc(OC)cc12 (stereo not drawn) [example compound 19, N-((2-(butylamino)-6-(trifluoromethyl)pyridin-3-yl)methyl)-2-(5-methoxy-1-methyl-1H-indol-3-yl)propanamide]	–
